Data published in patent US20230303483A1, “USE OF STROBILURIN TYPE COMPOUNDS FOR COMBATING PHYTOPATHOGENIC FUNGI CONTAINING AN AMINO ACID SUBSTITUTION F129L IN THE MITOCHONDRIAL CYTOCHROME B PROTEIN CONFERRING RESISTANCE TO QO […]” (BASF SE, priority 2020, published 2023).

What was measured:
[1] = test system: Phakopsora pachyrhizi (strain containing the amino acid substitution F129L in the mitochondrial cytochrome b protein); experiment: Use example 1: protective control of soybean rust on soybeans (PHAKPA P2), inoculation 2 days after spraying; type: in vivo; settings: % diseased leaf area on soybean, 16 ppm spray, inoculation 2 days after treatment, untreated controls usually >85 %
Method: (§1) The compound was dissolved in a mixture of acetone and/or dimethylsulfoxide and the wetting agent/emulsifier Wettol, which is based on ethoxylated alkylphenoles, in a ratio (volume) solvent-emulsifier of 99 to 1 to give a total volume of 5 ml. Subsequently, water was added to total volume of 100 ml. This stock solution was then diluted with the described solvent-emulsifier-water mixture to the final concentration given in the table below.
Use example 1. Protective control of soybean rust on soybeans caused by Phakopsora pachyrhizi (PHAKPA P2)
(§2) Leaves of potted soybean seedlings were sprayed to run-off with the previously described spray solution, containing the concentration of active ingredient or their mixture as described below. The plants were allowed to air-dry. The trial plants were cultivated for 2 days in a greenhouse chamber at 23-27° C. and a relative humidity between 60 and 80 %. Then the plants were inoculated with spores of Phakopsora pachyrhizi. The strain used contains the amino acid substitution F129L in the mitochondrial cytochrome b protein conferring resistance to Qo inhibitors. To ensure the success the artificial inoculation, the plants were transferred to a humid chamber with a relative humidity of about 95 % and 20 to 24° C. for 24 hr. The trial plants were cultivated for up to 14 days in a greenhouse chamber at 23 to 27° C. and a relative humidity between 60 and 80 %. The extent of fungal attack on the leaves was visually assessed as % diseased leaf area, the disease level of untreated controls was usually higher than 85 %.
(§3) All test results below are given for the control of phytopathogenic fungi containing the amino acid substitution F129L in the mitochondrial cytochrome b protein conferring resistance to Qo inhibitors.

[2] = test system: Phakopsora pachyrhizi (strain containing the amino acid substitution F129L in the mitochondrial cytochrome b protein); experiment: Use example 2: protective control of soybean rust on soybeans (PHAKPA P6), inoculation six days after spraying; type: in vivo; settings: % diseased leaf area on soybean, 16 ppm spray, inoculation six days after treatment, untreated controls usually >85 %
Method: as §1
Use example 2. Protective control of soybean rust on soybeans caused by Phakopsora pachyrhizi (PHAKPA P6)
as §2, with “active ingredient as described” for “active ingredient or their mixture as described”, “cultivated for six days in” for “cultivated for 2 days in”, “% and 23 to 27°” for “% and 20 to 24°”, “23 to 27° C. for” for “20 to 24° C. for”
as §3

| Compound | PHAKPA Disease level (%) P2 at 16 ppm [1] | PHAKPA Disease level (%) P6 at 16 ppm [2] |
| --- | --- | --- |
| CNC(=O)/C(=N/OC)c1ccccc1CO/N=C(\C)C#Cc1c(Cl)cccc1Cl [Example 107] | 27% | 15% |
| CNC(=O)/C(=N/OC)c1ccccc1CO/N=C(\C)C#Cc1ccc(Cl)cc1C(C)C [Example 110] | 0% | 2% |
| CO/N=C(/C(=O)OC)c1ccccc1CO/N=C(\C)C#Cc1cccc(C(F)(F)F)c1 [Example 41] | 50% | 67% |
| CO/N=C(/C(=O)OC)c1ccccc1CO/N=C(\C)C#Cc1ccccc1OC(F)(F)F [Example 10] | 70% | 83% |
| CO/N=C(/C(=O)OC)c1cccc(C)c1CO/N=C(\C)C#Cc1ccc(OC(F)(F)F)cc1 [Example 22, methyl (2E)-2-methoxyimino-2-[3-methyl-2-[[(E)-[1-methyl-3-[4-(trifluoromethoxy)-phenyl]prop-2-ynylidene]amino]oxymethyl]phenyl]acetate] | 93% | 97% |
| CO/N=C(/C(=O)OC)c1cccc(C)c1CO/N=C(\C)C#Cc1cccc(C)c1 [Example 42] | 3% | 6% |
| CO/N=C(/C(=O)OC)c1cccc(C)c1CO/N=C(\C)C#Cc1cccc(Cl)c1 [Example 72] | 7% | 8% |
| CNC(=O)/C(=N/OC)c1ccccc1CO/N=C(\C)C#Cc1ccccc1OC(F)(F)F [Example 9] | 0% | 5% |
| CNC(=O)/C(=N/OC)c1ccccc1CO/N=C(\C)C#Cc1ccc(OC2CC2)cc1 [Example 106] | 23% | 13% |
| CNC(=O)/C(=N/OC)c1cccc(C)c1CO/N=C(\C)C#Cc1ccc(F)cc1 [Example 33] | 0% | 0% |
| CNC(=O)/C(=N/OC)c1ccccc1CO/N=C(\C)C#Cc1cccc(Cl)c1 [Example 73] | 1% | 0% |
| CO/N=C(/C(=O)OC)c1ccccc1CO/N=C(\C)C#Cc1ccc(Br)cc1 [Example 54] | 22% | 25% |
| CO/N=C(/C(=O)OC)c1ccccc1CO/N=C(\C)C#Cc1ccccc1Cl [Example 74] | 42% | 47% |
| CNC(=O)/C(=N/OC)c1cccc(C)c1CO/N=C(\C)C#Cc1ccccc1F [Example 63] | 0% | 0% |
| CO/N=C(/C(=O)OC)c1cccc(C)c1CO/N=C(\C)C#Cc1ccccc1C(F)(F)F [Example 66] | 17% | 30% |
| CNC(=O)/C(=N/OC)c1cccc(C)c1CO/N=C(\C)C#Cc1cccc(F)c1 [Example 38] | 0% | 1% |
| CNC(=O)/C(=N/OC)c1cccc(C)c1CO/N=C(\C)C#Cc1cccc(C)c1 [Example 57] | 0% | 0% |
| CO/N=C(/C(=O)OC)c1ccccc1CO/N=C(\C)C#Cc1cccc2c1OC(F)(F)O2 [Example 103] | 28% | 22% |
| CO/N=C(/C(=O)OC)c1cccc(C)c1CO/N=C(\C)C#Cc1ccc(Cl)cc1 [Example 32] | 12% | 35% |
| CNC(=O)/C(=N/OC)c1cccc(C)c1CO/N=C(\C)C#Cc1cccc(OC(F)(F)F)c1 [Example 27] | 0% | 0% |
| CO/N=C(/C(=O)OC)c1cccc(C)c1CO/N=C(\C)C#Cc1ccc(F)c(C(=O)OC)c1 [Example 123] | 43% | 37% |

| Compound | PHAKPA Disease level (%) P2 at 16 ppm [1] | PHAKPA Disease level (%) P6 at 16 ppm [2] |
| --- | --- | --- |
| CNC(=O)/C(=N/OC)c1ccccc1CO/N=C(\C)C#Cc1ccc(Cl)cc1 [Example 4] | 3% | 7% |
| CO/N=C(/C(=O)OC)c1ccccc1CO/N=C(\C)C#Cc1ccc(OC(F)(F)F)cc1C1CC1 [Example 121] | 87% | 53% |
| CNC(=O)/C(=N/OC)c1ccccc1CO/N=C(\C)C#Cc1ccccc1 [Example 2, (2E)-2-Methoxyimino-N-methyl-2-[2-[[(E)-(1-methyl-3-phenyl-prop-2-ynylidene)-amino]oxymethyl]phenyl]acetamide] | 97% | 90% |
| CNC(=O)/C(=N/OC)c1cccc(C)c1CO/N=C(\C)C#Cc1ccccc1Cl [Example 78] | 0% | 0% |
| CO/N=C(/C(=O)OC)c1ccccc1CO/N=C(\C)C#Cc1ccccc1C(F)(F)F [Example 67] | 50% | 60% |
| CO/N=C(/C(=O)OC)c1cccc(C)c1CO/N=C(\C)C#Cc1ccc(Br)cc1 [Example 56] | 18% | 37% |
| CO/C=C(/C(=O)OC)c1cccc(C)c1CO/N=C(\C)C#Cc1ccc(F)c(C(=O)OC)c1 [Example 122] | 73% | 60% |
| CO/N=C(/C(=O)OC)c1ccccc1CO/N=C(\C)C#Cc1ccc2c(c1)OC(F)(F)O2 [Example 85] | 100% | 83% |
| CO/N=C(/C(=O)OC)c1ccccc1CO/N=C(\C)C#Cc1ccc(OC(F)(F)F)cc1 [Example 12, methyl(2E)-2-methoxyimino-2-[2-[[(E)-[1-methyl-3-[4-(trifluoromethoxy)phenyl]prop-2-ynylidene]amino]oxymethyl]phenyl]acetate] | 93% | 100% |
| CNC(=O)/C(=N/OC)c1cccc(C)c1CO/N=C(\C)C#Cc1ccccc1C [Example 49] | 0% | 0% |
| CNC(=O)/C(=N/OC)c1cccc(C)c1CO/N=C(\C)C#Cc1ccc(OC(F)(F)F)cc1 [Example 21, (2E)-2-Methoxyimino-N-methyl-2-[3-methyl-2-[[(E)-[1-methyl-3-[4-(trifluoromethoxy)phenyl]prop-2-ynylidene]amino]oxymethyl]phenyl]acetamide] | 25% | 33% |
| CNC(=O)/C(=N/OC)c1ccccc1CO/N=C(\C)C#Cc1ccc(Cl)cc1C1CC1 [Example 86] | 5% | 18% |
| CO/N=C(/C(=O)OC)c1ccccc1CO/N=C(\C)C#Cc1ccccc1F [Example 60] | 40% | 17% |
| CNC(=O)/C(=N/OC)c1ccccc1CO/N=C(\C)C#Cc1ccccc1Br [Example 48] | 0% | 2% |
| CNC(=O)/C(=N/OC)c1ccccc1CO/N=C(\C)C#Cc1cccc2c1OC(F)(F)O2 [Example 101] | 4% | 2% |
| CO/N=C(/C(=O)OC)c1cccc(C)c1CO/N=C(\C)C#Cc1cccc(F)c1 [Example 36] | 4% | 9% |
| CNC(=O)/C(=N/OC)c1cccc(C)c1CO/N=C(\C)C#Cc1ccccc1Br [Example 47] | 0% | 0% |
| CNC(=O)/C(=N/OC)c1ccccc1CO/N=C(\C)C#Cc1cccc(C(F)(F)F)c1 [Example 44] | 1% | 5% |
| CO/N=C(/C(=O)OC)c1cccc(C)c1CO/N=C(\C)C#Cc1ccccc1F [Example 61] | 8% | 8% |
| CO/N=C(/C(=O)OC)c1ccccc1CO/N=C(\C)C#Cc1ccc(C(F)(F)F)cc1 [Example 65] | 80% | 70% |
| CO/N=C(/C(=O)OC)c1ccccc1CO/N=C(\C)C#Cc1ccc(OCC(F)(F)F)cc1 [Example 98] | 73% | 93% |
